According to patent US10294212B2 (CURADEV PHARMA PRIVATE LTD., priority 2013, dated 2019):
Where a name gives a salt, the structure may show the parent alone.

What was measured:
[1] = biological target: Human indoleamine 2,3-dioxygenase1 (hIDO1) (Homo sapiens (Human), UniProt P14902); assay: In-vitro IDO1 enzyme assay (conversion of L-tryptophan to KYN); type: biochemical; conditions: read-out: IC50 (IDO1) Enz
How it was run: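 Kynurenine formation quantified by HPLC absorbance at 360 nm or LC/MS/MS after TCA quench and 15 min at 65 °C. Reaction: 10 nM N-His hIDO1, 30 μM tryptophan, ascorbate/methylene blue/catalase, pH 6.5 phosphate buffer, 37 °C for 30 min. Inhibition relative to 1% DMSO vehicle, fitted to IC50.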

IDO1 in HeLa cells = IDO1 in HeLa cells (Homo sapiens (Human), UniProt P14902); assay: HeLa cell based IDO1 assay (IFNγ-induced, KYN in supernatant)
IDO1 in HeLa cells, sequence (P14902 whole entry): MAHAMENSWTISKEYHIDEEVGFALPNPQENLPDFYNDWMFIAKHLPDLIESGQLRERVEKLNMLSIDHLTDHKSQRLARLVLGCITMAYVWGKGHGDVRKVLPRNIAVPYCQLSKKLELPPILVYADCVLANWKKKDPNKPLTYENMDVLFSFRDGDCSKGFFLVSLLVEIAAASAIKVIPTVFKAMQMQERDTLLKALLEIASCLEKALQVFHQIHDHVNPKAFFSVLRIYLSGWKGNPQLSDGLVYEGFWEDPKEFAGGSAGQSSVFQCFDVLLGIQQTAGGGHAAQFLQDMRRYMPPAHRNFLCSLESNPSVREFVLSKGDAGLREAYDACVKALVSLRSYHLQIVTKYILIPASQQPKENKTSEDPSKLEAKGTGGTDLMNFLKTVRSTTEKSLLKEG
How it was run: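 Kynurenine in the supernatant, quantified by C-18 HPLC with 360 nm absorbance after TCA hydrolysis (65 °C, 15 min), was the read-out. Compounds (typically 10 μM to 1 nM) were added in HBSS containing 80 μM tryptophan to HeLa cells pre-induced overnight with 50 ng/mL IFNγ. IC50 came from nonlinear fits of % inhibition versus 1% DMSO vehicle.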

[2] = biological target: Human TDO (hTDO)-transfected CHO-K1 cells (Homo sapiens (Human), UniProt P48775); assay: CHO-K1 cell based TDO assay; conditions: hTDO cellular assay
Human TDO (hTDO)-transfected CHO-K1 cells, sequence (P48775 whole entry): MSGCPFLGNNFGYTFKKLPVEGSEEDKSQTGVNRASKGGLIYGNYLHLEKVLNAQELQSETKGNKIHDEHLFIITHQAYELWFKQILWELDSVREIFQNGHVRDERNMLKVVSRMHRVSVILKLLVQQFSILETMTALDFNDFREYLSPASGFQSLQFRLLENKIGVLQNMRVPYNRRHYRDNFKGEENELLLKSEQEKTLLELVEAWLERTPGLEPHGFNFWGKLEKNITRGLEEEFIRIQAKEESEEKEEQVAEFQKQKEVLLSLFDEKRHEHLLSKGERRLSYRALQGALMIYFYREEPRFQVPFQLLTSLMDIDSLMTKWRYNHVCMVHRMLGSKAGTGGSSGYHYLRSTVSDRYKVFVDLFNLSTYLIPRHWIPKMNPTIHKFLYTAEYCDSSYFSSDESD
How it was run: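 Kynurenine output was read by LC/MS/MS after TCA precipitation and 15 min at 65° C. Before that, CHO-K1 cells stably carrying human TDO2 were incubated 2 h with compounds (typically 31 μM to 10 nM) and 80 μM L-tryptophan in HBSS. Decrease versus DMSO vehicle gave percent inhibition, then IC50.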

Human indoleamine 2,3-dioxygenase1 (hIDO1), sequence (P14902 whole entry): as the sequence (P14902 whole entry) above

Structure (SMILES)	IC50 [1] [µM]	IC50 (IDO1 in HeLa cells) [µM]	IC50 [2] [µM]
Nc1oc2c(-c3ccncc3)nccc2c1Nc1ccccc1Cl [Compound 202, N^3-(2-Chlorophenyl)-7-(pyridin-4-yl)furo[2,3-c]pyridine-2,3-diamine]	< 0.2	< 0.2	0.5 to 2
Nc1oc2c(-c3ccncc3)nccc2c1Nc1cccc(C(F)(F)F)c1 [Compound 203, 7-(Pyridin-4-yl)-N^3-(3-(trifluoromethyl)phenyl)furo[2,3-c]pyridine-2,3-diamine]	< 0.2	< 0.2	0.5 to 2
Nc1oc2c(-c3cccc4ccccc34)nccc2c1Nc1ccc(F)c(Cl)c1 [Compound 204, N^3-(3-Chloro-4-fluorophenyl)-7-(naphthalen-1-yl)furo[2,3-c]pyridine-2,3-diamine]	< 0.2	< 0.2	< 0.5
Cc1cc(-c2nccc3c(Nc4ccc(F)c(C(F)(F)F)c4)c(N)oc23)ccn1 [Compound 205, N^3-(4-fluoro-3-(trifluoromethyl)phenyl)-7-(2-methylpyridin-4-yl)furo[2,3-c]pyridine-2,3-diamine]	< 0.2	< 0.2	0.5 to 2
Cc1cc(-c2nccc3c(Nc4ccccc4Cl)c(N)oc23)ccn1 [Compound 206, N^3-(2-chlorophenyl)-7-(2-methylpyridin-4-yl)furo[2,3-c]pyridine-2,3-diamine]	< 0.2	< 0.2	0.5 to 2
Cc1cc(-c2nccc3c(Nc4cccc(C(F)(F)F)c4)c(N)oc23)ccn1 [Compound 207, 7-(2-methylpyridin-4-yl)-N^3-(3-(trifluoromethyl)phenyl)furo[2,3-c]pyridine-2,3-diamine]	< 0.2	< 0.2	0.5 to 2
Cc1cc(-c2nccc3c(Nc4ccc(F)cc4)c(N)oc23)ccn1 [Compound 208, N^3-(4-fluorophenyl)-7-(2-methylpyridin-4-yl)furo[2,3-c]pyridine-2,3-diamine]	< 0.2	< 0.2	< 0.5
Nc1sc2c(Br)cccc2c1Nc1ccc(F)c(Cl)c1 [Compound 210, 7-Bromo-N^3-(3-chloro-4-fluorophenyl)benzo[b]thiophene-2,3-diamine hydrochloride]	< 0.2	0.2 to 1	0.5 to 2
Nc1sc2ccccc2c1Nc1ccc(F)c(F)c1 [Compound 211, N^3-(3,4-Difluorophenyl)benzo[b]thiophene-2,3-diamine]	< 0.2	< 0.2	< 0.5
Nc1sc2c(-c3ccncc3)cccc2c1Nc1ccc(F)c(Cl)c1 [Compound 213, N^3-(3-Chloro-4-fluorophenyl)-7-(pyridin-4-yl)benzo[b]thiophene-2,3-diamine]	< 0.2	< 0.2	0.5 to 2
Cc1ccc2sc(N)c(Nc3ccc(F)c(Cl)c3)c2c1 [Compound 214, N^3-(3-Chloro-4-fluorophenyl)-5-methylbenzo[b]thiophene-2,3-diamine]	0.2 to 1	< 0.2	> 2
Cc1ccc2sc(N)c(Nc3ccc(F)c(F)c3)c2c1 [Compound 215, N^3-(3,4-difluorophenyl)-5-methylbenzo[b]thiophene-2,3-diamine]	0.2 to 1	< 0.2	> 2
Nc1oc2cnc(F)cc2c1Nc1ccc(F)c(F)c1 [Compound 216, N^3-(3,4-difluorophenyl)-5-fluorofuro[2,3-c]pyridine-2,3-diamine]	< 0.2	< 0.2	< 0.5
Nc1oc2c(-c3ccncc3)nccc2c1Nc1cccc(Cl)c1 [Compound 217, N^3-(3-Chlorophenyl)-7-(pyridin-4-yl)furo[2,3-c]pyridine-2,3-diamine]	< 0.2	< 0.2	< 0.5
Nc1oc2cnc(F)cc2c1Nc1ccccc1Cl [Compound 218, N^3-(2-Chlorophenyl)-5-fluorofuro[2,3-c]pyridine-2,3-diamine]	0.2 to 1	< 0.2	0.5 to 2
CNC(=O)c1cc(-c2nccc3c(Nc4ccccc4Cl)c(N)oc23)ccn1 [Compound 219, 4-(2-Amino-3-((2-chlorophenyl)amino)furo[2,3-c]pyridin-7-yl)-N-methylpicolinamide]	< 0.2	< 0.2	0.5 to 2
Nc1oc2cnc(F)cc2c1Nc1cccc(Cl)c1 [Compound 220, N^3-(3-Chlorophenyl)-5-fluorofuro[2,3-c]pyridine-2,3-diamine]	< 0.2	< 0.2	< 0.5
Nc1oc2cnc(F)cc2c1Nc1cccc(C(F)(F)F)c1 [Compound 221, 5-Fluoro-N^3-(3-(trifluoromethyl)phenyl)furo[2,3-c]pyridine-2,3-diamine]	< 0.2	< 0.2	0.5 to 2

Structure (SMILES)	IC50 [1] [µM]	IC50 (IDO1 in HeLa cells) [µM]	IC50 [2] [µM]
CNC(=O)c1cc(-c2nccc3c(Nc4ccc(F)c(F)c4)c(N)oc23)ccn1 [Compound 223, 4-(2-Amino-3-((3,4-difluorophenyl)amino)furo[2,3-c]pyridin-7-yl)-N-methylpicolinamide]	< 0.2	< 0.2	0.5 to 2
CNC(=O)c1cc(-c2nccc3c(Nc4ccc(F)cc4)c(N)oc23)ccn1 [Compound 224, 4-(2-Amino-3-((4-fluorophenyl)amino)furo[2,3-c]pyridin-7-yl)-N-methylpicolinamide]	< 0.2	< 0.2	< 0.5
CNC(=O)c1cc(-c2nccc3c(Nc4cccc(Cl)c4)c(N)oc23)ccn1 [Compound 225, 4-(2-Amino-3-((3-chlorophenyl)amino)furo[2,3-c]pyridin-7-yl)-N-methylpicolinamide]	< 0.2	< 0.2	0.5 to 2
CNC(=O)c1cc(-c2nccc3c(Nc4cccc(C(F)(F)F)c4)c(N)oc23)ccn1 [Compound 226, 4-(2-Amino-3-((3-(trifluoromethyl)phenyl)amino)furo[2,3-c]pyridin-7-yl)-N-methylpicolinamide]	< 0.2	< 0.2	> 2
CNC(=O)c1cc(-c2nccc3c(Nc4ccc(F)c(C(F)(F)F)c4)c(N)oc23)ccn1 [Compound 227, 4-(2-amino-3-((4-fluoro-3-(trifluoromethyl)phenyl)amino)furo[2,3-c]pyridin-7-yl)-N-methylpicolinamide]	< 0.2	< 0.2	> 2
Nc1oc2cnc(F)cc2c1Nc1ccc(F)cc1 [Compound 228, 5-Fluoro-N^3-(4-fluorophenyl)furo[2,3-c]pyridine-2,3-diamine]	< 0.2	< 0.2	< 0.5
COc1cc(-c2nccc3c(Nc4ccc(F)c(Cl)c4)c(N)oc23)ccn1 [Compound 229, N^3-(3-Chloro-4-fluorophenyl)-7-(2-methoxypyridin-4-yl)furo[2,3-c]pyridine-2,3-diamine]	< 0.2	< 0.2	0.5 to 2
Nc1sc2ccccc2c1Nc1cccc(Br)c1 [Compound 230, N^3-(3-Bromophenyl)benzo[b]thiophene-2,3-diamine]	< 0.2	< 0.2	0.5 to 2
Nc1sc2ccccc2c1Nc1ccc(F)cc1 [Compound 231, N^3-(4-Fluorophenyl)benzo[b]thiophene-2,3-diamine]	0.2 to 1	0.2 to 1	> 2
CCc1ccccc1Nc1c(N)sc2ccccc12 [Compound 232, N^3-(2-Ethylphenyl)benzo[b]thiophene-2,3-diamine hydrochloride]	> 1	> 1	> 2
Nc1sc2c(-c3ccccc3)cccc2c1Nc1ccc(F)c(Cl)c1 [Compound 233, N^3-(3-Chloro-4-fluorophenyl)-7-phenylbenzo[b]thiophene-2,3-diamine]	< 0.2	< 0.2	> 2
Nc1sc2ccccc2c1Nc1cccc(Cl)c1 [Compound 234, N^3-(3-Chlorophenyl)benzo[b]thiophene-2,3-diamine]	< 0.2	< 0.2	< 0.5
COc1cccc(Nc2c(N)sc3ccccc23)c1 [Compound 235, N^3-(3-Methoxyphenyl)benzo[b]thiophene-2,3-diamine]	0.2 to 1	< 0.2	< 0.5
Nc1sc2ccccc2c1Nc1ccc2c(c1)OCO2 [Compound 236, N^3-(benzo[d][1,3]dioxol-5-yl)benzo[b]thiophene-2,3-diamine]	< 0.2	< 0.2	> 2
Cc1cc(Br)ccc1Nc1c(N)sc2ccccc12 [Compound 237, N^3-(4-Bromo-2-methylphenyl)benzo[b]thiophene-2,3-diamine]	> 1	0.2 to 1	> 2
Cc1cc(-c2nccc3c(Nc4cccc(Cl)c4)c(N)oc23)ccn1 [Compound 238, N^3-(3-Chlorophenyl)-7-(2-methylpyridin-4-yl)furo[2,3-c]pyridine-2,3-diamine]	< 0.2	< 0.2	0.5 to 2
Cc1cc(-c2nccc3c(Nc4ccccc4)c(N)oc23)ccn1 [Compound 239, 7-(2-Methylpyridin-4-yl)-N^3-phenylfuro[2,3-c]pyridine-2,3-diamine]	< 0.2	< 0.2	< 0.5
